Laboratory results as given in ChEMBL document CHEMBL1158164, “2-Deoxy-2,3-didehydro-N-acetylneuraminic acid analogs structurally modified by thiocarbamoylalkyl groups at the C-4 position: Synthesis and biological evaluation as inhibitors of human parainfluenza virus type 1” (Bioorg Med Chem, 2008).

Assay: Inhibition of hPIV1 sialidase
Parameters: species or system Human respirovirus 1

Structure (SMILES)	IC50 [µM]
CC(=O)N[C@H]1[C@H]([C@H](O)[C@H](O)CO)OC(C(=O)O)=C[C@@H]1OCCCC(N)=S	102
CC(=O)N[C@H]1[C@H]([C@H](O)[C@H](O)CO)OC(C(=O)O)=C[C@@H]1O [NEU5AC2EN]	300
CC(=O)N[C@H]1[C@H]([C@H](O)[C@H](O)CO)OC(C(=O)O)=C[C@@H]1OCCC(N)=S	68
CC(=O)N[C@H]1[C@H]([C@H](O)[C@H](O)CO)OC(C(=O)O)=C[C@@H]1OCC(N)=S	9
